In brackets after ≈: the same amount, converted by molar mass.
Columns and labels:
[1] = molecular target: T1, C-X-C chemokine receptor type 3 (Homo sapiens, UniProt P49682); assay: Antagonist activity at CXCR3 (unknown origin) assessed as reduction in CXCL10 induced calcium flux by [35S]GTPgammaS binding assay
T1 sequence (P49682 whole entry): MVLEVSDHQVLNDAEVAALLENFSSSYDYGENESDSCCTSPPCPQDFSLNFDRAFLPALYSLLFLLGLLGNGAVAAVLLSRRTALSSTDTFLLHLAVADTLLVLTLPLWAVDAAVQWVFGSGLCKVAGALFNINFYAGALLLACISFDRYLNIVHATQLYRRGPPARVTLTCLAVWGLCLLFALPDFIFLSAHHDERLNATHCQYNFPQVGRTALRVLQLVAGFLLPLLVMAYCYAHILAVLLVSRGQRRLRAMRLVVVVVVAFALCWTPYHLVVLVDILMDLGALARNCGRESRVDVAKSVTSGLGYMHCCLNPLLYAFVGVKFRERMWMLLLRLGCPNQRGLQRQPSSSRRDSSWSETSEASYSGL

[2] = molecular target: T1, C-X-C chemokine receptor type 3; assay: Displacement of [125I]-CXCL10 from CXCR3 in human PBMC cells; type: cell-based
[3] = molecular target: T1, C-X-C chemokine receptor type 3; assay: Antagonist activity at CXCR3 (unknown origin) assessed as reduction in CXCL11 induced calcium flux by FLIPR method
[4] = Lipophilicity, logD of compound at pH 7.4; type: physicochemical; conditions: buffer
[5] = Intrinsic clearance in mouse liver microsomes; type: ADME, Microsome
[6] = molecular target: T1, C-X-C chemokine receptor type 3; assay: Antagonist activity at human CXCR3 assessed as reduction in CXCL11 induced calcium flux by [35S]GTPgammaS binding assay
[7] = molecular target: T1, C-X-C chemokine receptor type 3; assay: Antagonist activity at CXCR3 (unknown origin) assessed as reduction in CXCL11 induced calcium flux by flow cytometry
[8] = molecular target: T1, C-X-C chemokine receptor type 3; assay: Antagonist activity at CXCR3 (unknown origin) assessed as reduction in CXCL10 induced calcium flux by flow cytometry
[9] = Clearance in rat at 10 mg/kg, po or 0.2 mg/kg, iv; type: ADME, organism-based; conditions: in vivo
[10] = Volume of distribution in mouse at 10 mg/kg. po or 0.2 mg/kg, iv; type: ADME, organism-based; conditions: in vivo
hERG (KCNH2) [11] = molecular target: T2, hERG (KCNH2) (Homo sapiens, UniProt Q12809); assay: Inhibition of hERG at 3 uM relative to control; type: toxicity
T2 sequence (Q12809 whole entry): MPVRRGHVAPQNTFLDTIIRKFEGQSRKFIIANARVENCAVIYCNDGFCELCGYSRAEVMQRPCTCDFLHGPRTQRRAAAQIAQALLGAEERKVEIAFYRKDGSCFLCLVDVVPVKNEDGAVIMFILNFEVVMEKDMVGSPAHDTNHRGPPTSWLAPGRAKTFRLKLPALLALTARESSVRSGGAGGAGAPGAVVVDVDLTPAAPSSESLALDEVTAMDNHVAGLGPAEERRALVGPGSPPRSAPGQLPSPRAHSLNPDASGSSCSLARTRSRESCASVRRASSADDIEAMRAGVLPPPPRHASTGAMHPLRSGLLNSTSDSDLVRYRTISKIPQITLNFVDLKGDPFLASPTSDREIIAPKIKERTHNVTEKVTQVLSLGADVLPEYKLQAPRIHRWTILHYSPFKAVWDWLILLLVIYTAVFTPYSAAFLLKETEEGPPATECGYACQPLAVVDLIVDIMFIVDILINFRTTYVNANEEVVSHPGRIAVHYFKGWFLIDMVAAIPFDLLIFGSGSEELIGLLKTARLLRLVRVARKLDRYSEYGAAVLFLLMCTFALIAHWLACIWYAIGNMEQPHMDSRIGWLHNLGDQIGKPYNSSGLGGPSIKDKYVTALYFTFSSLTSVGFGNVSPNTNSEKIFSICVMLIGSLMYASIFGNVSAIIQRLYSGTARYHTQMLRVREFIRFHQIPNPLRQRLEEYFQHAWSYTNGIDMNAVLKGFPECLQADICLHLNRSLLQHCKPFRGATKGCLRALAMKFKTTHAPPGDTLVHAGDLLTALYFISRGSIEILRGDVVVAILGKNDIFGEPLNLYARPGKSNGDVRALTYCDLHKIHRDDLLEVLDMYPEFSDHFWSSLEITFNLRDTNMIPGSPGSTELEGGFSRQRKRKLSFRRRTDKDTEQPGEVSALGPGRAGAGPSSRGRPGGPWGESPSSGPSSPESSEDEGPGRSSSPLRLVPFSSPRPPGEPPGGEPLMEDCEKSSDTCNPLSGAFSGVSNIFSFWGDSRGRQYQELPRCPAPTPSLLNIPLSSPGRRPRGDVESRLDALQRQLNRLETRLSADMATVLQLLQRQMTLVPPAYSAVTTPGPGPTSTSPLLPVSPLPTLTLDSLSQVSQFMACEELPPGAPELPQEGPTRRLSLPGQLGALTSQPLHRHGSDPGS

[12] = molecular target: C-C chemokine receptor type 7 (Homo sapiens) (UniProt P32248); assay: Antagonist activity at CCR7 (unknown origin)
C-C chemokine receptor type 7 (Homo sapiens), sequence (P32248 whole entry, looked up): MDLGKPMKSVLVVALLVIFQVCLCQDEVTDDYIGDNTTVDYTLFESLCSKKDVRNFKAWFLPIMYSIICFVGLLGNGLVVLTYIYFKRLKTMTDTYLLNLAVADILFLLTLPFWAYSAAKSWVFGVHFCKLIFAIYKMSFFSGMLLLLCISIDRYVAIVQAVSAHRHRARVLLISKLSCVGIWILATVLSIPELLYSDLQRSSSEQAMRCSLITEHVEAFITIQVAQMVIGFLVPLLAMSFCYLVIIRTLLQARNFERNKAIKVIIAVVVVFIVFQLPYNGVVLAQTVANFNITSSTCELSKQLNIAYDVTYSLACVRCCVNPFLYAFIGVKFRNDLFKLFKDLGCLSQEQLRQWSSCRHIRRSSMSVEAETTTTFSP

[13] = molecular target: C-C chemokine receptor type 4 (Homo sapiens) (UniProt P51679); assay: Antagonist activity at CCR4 (unknown origin)
C-C chemokine receptor type 4 (Homo sapiens), sequence (P51679 whole entry, looked up): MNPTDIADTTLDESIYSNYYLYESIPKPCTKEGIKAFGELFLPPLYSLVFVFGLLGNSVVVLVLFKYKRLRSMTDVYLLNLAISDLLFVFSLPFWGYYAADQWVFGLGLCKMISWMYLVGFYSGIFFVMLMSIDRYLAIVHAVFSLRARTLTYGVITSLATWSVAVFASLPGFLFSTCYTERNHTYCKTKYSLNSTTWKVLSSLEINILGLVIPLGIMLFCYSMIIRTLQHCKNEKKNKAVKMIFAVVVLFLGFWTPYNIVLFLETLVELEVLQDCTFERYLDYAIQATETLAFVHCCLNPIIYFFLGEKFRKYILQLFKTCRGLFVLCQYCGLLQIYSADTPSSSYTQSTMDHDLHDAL

[14] = molecular target: T3, C-X-C chemokine receptor type 2 (Homo sapiens, UniProt P25025); assay: Antagonist activity at CXCR2 (unknown origin)
T3 sequence (P25025 whole entry): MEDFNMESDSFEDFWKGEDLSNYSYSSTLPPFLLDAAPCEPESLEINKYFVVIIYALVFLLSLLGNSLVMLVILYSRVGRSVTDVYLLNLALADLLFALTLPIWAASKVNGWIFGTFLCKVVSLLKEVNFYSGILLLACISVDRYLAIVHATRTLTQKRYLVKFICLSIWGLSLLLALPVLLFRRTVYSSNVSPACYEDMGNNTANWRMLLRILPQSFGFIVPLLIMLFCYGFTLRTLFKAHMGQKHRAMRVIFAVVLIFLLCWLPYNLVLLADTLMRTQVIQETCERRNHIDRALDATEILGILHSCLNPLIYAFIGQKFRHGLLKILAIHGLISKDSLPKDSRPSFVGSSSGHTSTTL

[15] = molecular target: T1, C-X-C chemokine receptor type 3; assay: Antagonist activity at CXCR3 (unknown origin)
[16] = molecular target: C-C chemokine receptor type 6 (Homo sapiens) (UniProt P51684); assay: Antagonist activity at CCR6 (unknown origin)
C-C chemokine receptor type 6 (Homo sapiens), sequence (P51684 whole entry, looked up): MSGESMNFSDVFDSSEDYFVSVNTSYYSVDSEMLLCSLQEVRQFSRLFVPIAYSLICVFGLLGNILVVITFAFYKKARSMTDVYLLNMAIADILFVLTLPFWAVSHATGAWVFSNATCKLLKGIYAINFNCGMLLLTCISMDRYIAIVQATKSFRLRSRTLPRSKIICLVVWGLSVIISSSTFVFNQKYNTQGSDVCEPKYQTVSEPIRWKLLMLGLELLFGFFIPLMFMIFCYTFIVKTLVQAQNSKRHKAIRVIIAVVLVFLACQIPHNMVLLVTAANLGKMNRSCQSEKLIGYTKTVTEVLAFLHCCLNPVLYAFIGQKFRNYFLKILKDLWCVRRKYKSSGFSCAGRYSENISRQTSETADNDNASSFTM

[17] = molecular target: Voltage-gated inwardly rectifying potassium channel KCNH2 (Homo sapiens, UniProt Q12809); assay: Inhibition of hERG; type: toxicity
Voltage-gated inwardly rectifying potassium channel KCNH2, sequence (Q12809 whole entry): as the sequence (Q12809 whole entry) above

[18] = Oral bioavailability in mouse at 10 mg/kg; type: ADME, organism-based; conditions: in vivo
[19] = Clearance in rat at 10 mg/kg, po or 5 mg/kg, iv; type: ADME, organism-based; conditions: in vivo
[20] = Half life in mouse at 10 mg/kg, po or 5 mg/kg, iv; type: ADME, organism-based; conditions: in vivo
[21] = AUC in mouse at 10 mg/kg, po; type: ADME, organism-based; design: dose 10 mg/kg, route po; conditions: in vivo
[22] = Solubility of compound; type: physicochemical
[23] = molecular target: T1, C-X-C chemokine receptor type 3; assay: Antagonist activity at CXCR3 (unknown origin) assessed as reduction in CXCL10 induced calcium flux by FLIPR method
[24] = AUC in rat at 2 mg/kg, po; type: ADME, organism-based; design: dose 2 mg/kg, route po; conditions: in vivo
[25] = molecular target: C-X-C chemokine receptor type 3 (Homo sapiens) (UniProt P49682); assay: Inhibition of CXCR3 at 20 to 50 uM relative to control
[26] = molecular target: T1, C-X-C chemokine receptor type 3; assay: Displacement of [125I]-CXCL10 from CXCR3 in human PBMC cells by scintillation proximity assay; type: cell-based
[27] = molecular target: T4, C-X-C chemokine receptor type 3 (Mus musculus, UniProt O88410); assay: […] of CXCR3 receptor internalization in mouse whole blood in presence of CXCl10 by flow cytometry; type: tissue-based
T4 sequence (O88410 whole entry): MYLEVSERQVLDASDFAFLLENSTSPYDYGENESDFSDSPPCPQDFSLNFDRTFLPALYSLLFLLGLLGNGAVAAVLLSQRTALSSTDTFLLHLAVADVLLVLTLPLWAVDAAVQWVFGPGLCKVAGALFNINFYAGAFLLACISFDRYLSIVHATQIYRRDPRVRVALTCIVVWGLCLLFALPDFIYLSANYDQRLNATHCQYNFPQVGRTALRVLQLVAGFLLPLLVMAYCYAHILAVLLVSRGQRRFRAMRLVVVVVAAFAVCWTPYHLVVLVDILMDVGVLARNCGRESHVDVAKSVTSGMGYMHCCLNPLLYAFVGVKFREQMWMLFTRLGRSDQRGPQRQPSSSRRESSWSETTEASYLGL

hERG (KCNH2) [28] = molecular target: T2, hERG (KCNH2); assay: Inhibition of hERG at 10 uM relative to control; type: toxicity
[29] = AUC in rat at 10 mg/kg, po; type: ADME, organism-based; design: dose 10 mg/kg, route po; conditions: in vivo
[30] = Oral bioavailability in mouse at 30 mg/kg; type: ADME, organism-based; conditions: in vivo
[31] = Clearance in mouse at 30 mg/kg, po; type: ADME, organism-based; conditions: in vivo
[32] = Half life in rat at 2.0 mg/kg, po or 0.5 mg/kg, iv; type: ADME, organism-based; conditions: in vivo

O=C(Nc1ccccc1)N1CCCC(c2ccccc2)(C2CCN(Cc3ccc(Br)cc3)CC2)C1 (stereo not drawn)
IC50 [1]: 31.6 nM

N=C(Nc1ccc(I)cc1)NC1C2CC3CC(C2)CC1C3 (stereo not drawn)
Ki [2]: 158 nM

CCN(CC)C(=O)[C@@H]1C=C2C3C=CCc4[nH]cc(c43)C[C@H]2N(C(=O)Nc2ccccc2)C1 (stereo partly drawn)
IC50 [3]: 20 nM | IC50 [2]: 50.1 nM

C[C@@H]1CC[C@@]2(OC1)OC1CC3C4CC=C5[C@@H](O[C@@H]6O[C@H](CO)[C@@H](O[C@H]7O[C@H](C)[C@@H](O)[C@H](O)[C@@H]7O)[C@@H](O)[C@H]6O[C@H]6O[C@@H](C)[C@@H](O)[C@H](O)[C@@H]6O)CCC[C@]5(C)C4CC[C@]3(C)C1[C@@H]2C (stereo partly drawn)
IC50 [2]: 501 nM

CC1(C)[C@H]2CC=C(CN3CCC(Nc4nc(-c5cc(C(F)(F)F)cc(C(F)(F)F)c5)ns4)CC3)[C@@H]1C2
logD [4]: 5 | CLH [5]: 0.016 mL/min/kg | Ki [6]: 251 nM

CC[C@H](C)C[C@H](C)C[C@H](C)[C@@H](O[C@@H]1O[C@H](COC(C)=O)[C@@H](O)[C@@H](O)[C@@H]1O)[C@@H](C)/C=C(\C)[C@@H](O)[C@@H](C)/C=C(\C)[C@@H](O)[C@@H](C)/C=C(\C)C(=O)OC[C@@H](O)[C@H](O)[C@H](O)CO
IC50 [2]: 15800 nM

CCNC(=O)N1CCCN(c2ccc(C(=O)NCCc3ccc(Cl)cc3Cl)cc2NC(=O)c2cccc(Cl)c2)CC1
IC50 [3]: 63.1 nM | pIC50 [7]: 7

N#Cc1ccc(S(=O)(=O)N(Cc2ccc(-c3nnn[nH]3)c(F)c2)Cc2ccccc2F)cc1
IC50 [8]: 200 nM | clearance [9]: 28.3 mL/min/kg | Vd [10]: 1 L/kg

CC[C@H]1CN(c2ncc(C(N)=O)nc2C)CCN1C1CCN(Cc2ccc(Cl)nc2N)CC1
inhibition at 3 µM (hERG (KCNH2) [11]): 0%

CCCCCCCCCC(=O)N(CCN(C)C)C(C)c1nc2ccccc2c(=O)n1-c1ccc(F)cc1 (stereo not drawn)
IC50 [3]: 398 nM

Cc1ccc(C(Nc2c(Nc3cccc(C(=O)N(C)C)c3O)c(=O)c2=O)C2(C)CCCO2)o1 (stereo not drawn)
IC50 [12]: 7.94 nM | IC50 [13]: 398 nM | IC50 [14]: 63.1 nM | IC50 [15]: 1.26 nM | IC50 [16]: 2 nM

O=C(Cn1c(=O)[nH]c2ccccc21)N1CCN(c2ncc(Cl)cc2-c2cnc(N3CCC(O)CC3)nc2)CC1
IC50 [17]: 31600 nM

O=C(Nc1ccc2ccccc2c1)NC1CCN(CC2=CCCCCC2)CC1
Ki [6]: 100 nM

Cc1cccc2c1n(C)c(=N)n2CC(=O)c1ccc(Cl)cc1
bioavailability [18]: 57% | clearance [19]: 95 mL/min/kg | half-life [20]: 4.9 h

CC[C@H]1CN(c2nc(N)c(C(N)=O)nc2Cl)CCN1C1CCN(Cc2ccc(Cl)cc2)CC1
Ki [2]: 0.794 nM | AUC [21]: 5.1 µM·h

COc1cc(CN(C[C@H]2CC[C@H](C(=O)O)CC2)[C@H]2CCc3cc(Cl)ccc32)ccc1OCCN1C(=O)CCC1=O
IC50 [2]: 12.6 nM

CC(=O)N1C2C=C(CN3[C@@H]4CC[C@H]3C[C@H](NC(=O)Nc3cc(F)cc(C(F)(F)F)c3)C4)CC1CCC2
logD [4]: 3.1 | solubility [22]: 40 µg/mL (≈ 78.7 µM) | Ki [6]: 6.31 nM

CC(=O)Nc1cccc(/C(C)=N\NC(=O)c2ccc(CN(Cc3ccccc3)S(=O)(=O)c3ccc(Cl)cc3)cc2)c1
IC50 [8]: 501 nM | Ki [3]: 200 nM | Ki [23]: 6500 nM | IC50 [1]: 100 nM

CNc1ncc(-c2cc(C(F)(F)F)ccc2N2CCN(C(=O)Cn3nc(C)cc3C)CC2)cn1
AUC [24]: 271 ng·h/mL

Cc1ccc(C(=O)N2CCN(CC(=O)Nc3cc(-c4ccccc4)sc3C(N)=O)CC2)cc1
inhibition at 50 µM [25]: 50%

CC(=O)c1nc2ccccc2n1CC(=O)c1ccc([N+](=O)[O-])cc1
IC50 [2]: 3160 nM

C[C@H](c1nc2ncccc2c(=O)n1-c1ccc(Cl)cc1)N(CC1CCS(=O)(=O)CC1)C(=O)Cc1ccc(C(F)(F)F)c(F)c1
IC50 [26]: 6.31 nM

C[C@H]1CN(c2scnc2-c2nc3ccccc3[nH]2)CCN1C(=O)Cn1ccc2cccnc21
IC50 [27]: 398 nM

CCNc1nnc(-c2cnc(N3C[C@H](CC)N(C4CCN(Cc5ccc(Cl)cc5)CC4)C[C@H]3C)c(C)n2)o1
inhibition at 10 µM (hERG (KCNH2) [28]): 25%

CCNC(=O)c1cnc(N2CCN(C3CCN(Cc4ccc(Cl)cc4F)CC3)[C@@H](CC)C2)c(Cl)c1
Ki [2]: 0.316 nM | AUC [29]: 0.95 µM·h

N#Cc1ccc(CN2CCC(N3CCN(c4ncc(C(=O)NCCOc5ccccc5)cc4Cl)CC3)CC2)cc1
Ki [2]: 100 nM

CC(=O)N1C2C=C(CN3[C@@H]4CC[C@H]3C[C@H](Nc3ccc5ccc(OC(C)C)cc5n3)C4)CC1CCC2
logD [4]: 2.9 | bioavailability [30]: 69% | CLint [5]: 9 µL/min/mg | CL/F [31]: 9 mL/min/kg

C[C@H](c1nc2ncccc2c(=O)n1-c1ccc(Cl)cc1)N(CC1CCS(=O)(=O)CC1)C(=O)Cc1ccc(F)c(C(F)(F)F)c1
IC50 [3]: 5.01 nM | half-life [32]: 4 h | IC50 [26]: 6.31 nM

CCNC(=O)N1CCCN(c2ccc(C(=O)NC(C)C)cc2NC(=O)c2cccc(Cl)c2)CC1
IC50 [3]: 2000 nM
